Reference: patent publication US9637469B2, “Pyridine derivative” (Teijin Pharma Limited, priority 2012, dated 2017)

Each molecule was assayed against T1, human URAT1 (Homo sapiens, UniProt Q96S37) (assay: Test for inhibition of uric acid transport using human URAT1-expressing cells). Conditions: HEK 293 cells expressing human URAT1; 14C-labeled uric acid 25 μM; uptake 37° C. for 5 min.
T1 construct: Full-length cDNA of human URAT1 (hURAT1)
T1 sequence (Q96S37 1-553): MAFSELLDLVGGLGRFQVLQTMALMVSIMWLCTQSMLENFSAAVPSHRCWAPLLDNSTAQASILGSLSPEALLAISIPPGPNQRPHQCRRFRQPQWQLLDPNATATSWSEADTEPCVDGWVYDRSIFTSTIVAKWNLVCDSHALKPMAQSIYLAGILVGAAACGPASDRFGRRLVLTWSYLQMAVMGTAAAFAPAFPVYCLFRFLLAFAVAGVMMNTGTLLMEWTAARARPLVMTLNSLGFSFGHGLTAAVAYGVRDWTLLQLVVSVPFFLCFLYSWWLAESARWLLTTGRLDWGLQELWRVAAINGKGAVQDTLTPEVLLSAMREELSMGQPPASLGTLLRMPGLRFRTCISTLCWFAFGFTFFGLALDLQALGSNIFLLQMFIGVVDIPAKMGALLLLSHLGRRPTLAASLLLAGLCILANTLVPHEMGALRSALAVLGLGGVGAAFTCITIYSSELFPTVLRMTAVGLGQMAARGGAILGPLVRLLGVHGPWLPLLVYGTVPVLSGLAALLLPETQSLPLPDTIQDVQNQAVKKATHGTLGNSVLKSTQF
Assay type: cell-based
How it was run: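 HEK293 cells stably transfected with full-length hURAT1, preincubated 10 min at 37 °C in HBSS with NaCl replaced by Na gluconate. Uptake of 25 μM ¹⁴C-uric acid with compound ran 5 min at 37 °C, then scintillation counting. IC50 derived from % of DMSO-control URAT1-specific uptake.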
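Also: three stars up to 0.2 µM two stars 0.2-2 µM one star 2-20 µM.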

Inhibitory Activity (IC50 of uric acid transport inhibition) | Compound
* * * | CCS(=O)(=O)N1CCN(Cc2nc(-c3cncc(Cl)c3)n(Cc3cc(Cl)ccc3Cl)c2C(=O)O)CC1 [Compound A204, 2-(5-chloropyridin-3-yl)-1-(2,5-dichlorobenzyl)-4-((4-(ethylsulfonyl)piperazin-1-yl)methyl)-1H-imidazole-5-carboxylic acid]
* * * | O=C(O)c1cnc(-c2cncc(Br)c2)n1Cc1cc(Cl)ccc1Cl [Compound A205, 2-(5-bromopyridin-3-yl)-1-(2,5-dichlorobenzyl)-1H-imidazole-5-carboxylic acid]
* * * | Cc1cncc(-c2ncc(C(=O)O)n2Cc2cc(Cl)ccc2Cl)c1 [Compound A206, 1-(2,5-dichlorobenzyl)-2-(5-methylpyridin-3-yl)-1H-imidazole-5-carboxylic acid]
* * * | O=C(O)c1c(C(F)F)nc(-c2cncc(Cl)c2)n1Cc1cc(Cl)ccc1Cl [Compound A207, 2-(5-chloropyridin-3-yl)-1-(2,5-dichlorobenzyl)-4-(difluoromethyl)-1H-imidazole-5-carboxylic acid]
* * * | Cc1nc(-c2cncc(C(F)F)c2)n(Cc2cc(Cl)ccc2Cl)c1C(=O)O [Compound A208, 1-(2,5-dichlorobenzyl)-2-(5-(difluoromethyl)pyridin-3-yl)-4-methyl-1H-imidazole-5-carboxylic acid]
* * * | C#Cc1nc(-c2cncc(Cl)c2)n(Cc2cc(Cl)ccc2Cl)c1C(=O)O [Compound A209, 2-(5-chloropyridin-3-yl)-1-(2,5-dichlorobenzyl)-4-ethynyl-1H-imidazole-5-carboxylic acid]
* * * | O=C(O)c1nc(-c2cncc(Cl)c2)n(Cc2cc(Cl)ccc2Cl)c1C(=O)O [Compound A210, 2-(5-chloropyridin-3-yl)-1-(2,5-dichlorobenzyl)-1H-imidazole-4,5-dicarboxylic acid]
* * * | CC(O)c1nc(-c2cncc(Cl)c2)n(Cc2cc(Cl)ccc2Cl)c1C(=O)O (stereo not drawn) [Compound A211, 2-(5-chloropyridin-3-yl)-1-(2,5-dichlorobenzyl)-4-(1-hydroxyethyl)-1H-imidazole-5-carboxylic acid]
* * * | CC(C)(O)c1nc(-c2cncc(F)c2)n(Cc2cc(Cl)ccc2Cl)c1C(=O)O [Compound A212, 1-(2,5-dichlorobenzyl)-2-(5-fluoropyridin-3-yl)-4-(2-hydroxypropan-2-yl)-1H-imidazole-5-carboxylic acid]
* * * | CC(C)(O)c1nc(-c2cncc(Cl)c2)n(Cc2cc(Cl)ccc2Cl)c1C(=O)O [Compound A213, 2-(5-chloropyridin-3-yl)-1-(2,5-dichlorobenzyl)-4-(2-hydroxypropan-2-yl)-1H-imidazole-5-carboxylic acid]
* * * | Cc1cncc(-c2nc(C(C)(C)O)c(C(=O)O)n2Cc2cc(Cl)ccc2Cl)c1 [Compound A214, 1-(2,5-dichlorobenzyl)-4-(2-hydroxypropan-2-yl)-2-(5-methylpyridine-3-yl)-1H-imidazole-5-carboxylic acid]
* * * | CCC(O)(CC)c1nc(-c2cncc(F)c2)n(Cc2cc(Cl)ccc2Cl)c1C(=O)O [Compound A215, 1-(2,5-dichlorobenzyl)-2-(5-fluoropyridin-3-yl)-4-(3-hydroxypentan-3-yl)-1H-imidazole-5-carboxylic acid]
* * * | CCC(O)(CC)c1nc(-c2cncc(Cl)c2)n(Cc2cc(Cl)ccc2Cl)c1C(=O)O [Compound A216, 2-(5-chloropyridin-3-yl)-1-(2,5-dichlorobenzyl)-4-(3-hydroxypentane-3-yl)-1H-imidazole-5-carboxylic acid]
* * * | CCC(O)(CC)c1nc(-c2cncc(C)c2)n(Cc2cc(Cl)ccc2Cl)c1C(=O)O [Compound A217, 1-(2,5-dichlorobenzyl)-4-(3-hydroxypentan-3-yl)-2-(5-methylpyridin-3-yl)-1H-imidazole-5-carboxylic acid]
* * * | CC(=O)c1nc(-c2cncc(Cl)c2)n(Cc2cc(Cl)ccc2Cl)c1C(=O)O [Compound A218, 4-acetyl-2-(5-chloropyridin-3-yl)-1-(2,5-dichlorobenzyl)-1H-imidazole-5-carboxylic acid]
* * * | Cc1cncc(-c2nc(Cl)c(C(=O)O)n2Cc2cc(Cl)ccc2Cl)c1 [Compound A219, 4-chloro-1-(2,5-dichlorobenzyl)-2-(5-methylpyridin-3-yl)-1H-imidazole-5-carboxylic acid]
* * * | O=C(O)c1c(Cl)nc(-c2cncc(Cl)c2)n1Cc1cc(Cl)ccc1Cl [Compound A220, 4-chloro-2-(5-chloropyridine-3-yl)-1-(2,5-dichlorobenzyl)-1H-imidazole-5-carboxylic acid]

The next lines start with the molecule.

Compound | Inhibitory Activity (IC50 of uric acid transport inhibition)
O=C(O)c1c(CO)nc(-c2cncc(Cl)c2)n1Cc1cc(Cl)ccc1Cl [Compound A191, 2-(5-chloropyridin-3-yl)-1-(2,5-dichlorobenzyl)-4-(hydroxymethyl)-1H-imidazole-5-carboxylic acid] | * * *
CN(C)Cc1nc(-c2cncc(Cl)c2)n(Cc2cc(Cl)ccc2Cl)c1C(=O)O [Compound A192, 2-(5-chloropyridin-3-yl)-1-(2,5-dichlorobenzyl)-4-((dimethylamino)methyl)-1H-imidazole-5-carboxylic acid] | * *
CCN(CC)Cc1nc(-c2cncc(Cl)c2)n(Cc2cc(Cl)ccc2Cl)c1C(=O)O [Compound A193, 2-(5-chloropyridin-3-yl)-1-(2,5-dichlorobenzyl)-4-((diethylamino)methyl)-1H-imidazole-5-carboxylic acid] | * * *
O=C(O)c1c(CN2CCCC2)nc(-c2cncc(Cl)c2)n1Cc1cc(Cl)ccc1Cl [Compound A194, 2-(5-chloropyridin-3-yl)-1-(2,5-dichlorobenzyl)-4-(pyrrolidin-1-ylmethyl)-1H-imidazole-5-carboxylic acid] | * * *
O=C(O)c1c(CN2CCCCC2)nc(-c2cncc(Cl)c2)n1Cc1cc(Cl)ccc1Cl [Compound A195, 2-(5-chloropyridin-3-yl)-1-(2,5-dichlorobenzyl)-4-(piperidin-1-ylmethyl)-1H-imidazole-5-carboxylic acid] | * * *
O=C(O)c1c(CN2CCOCC2)nc(-c2cncc(Cl)c2)n1Cc1cc(Cl)ccc1Cl [Compound A196, 2-(5-chloropyridin-3-yl)-1-(2,5-dichlorobenzyl)-4-(morpholinomethyl)-1H-imidazole-5-carboxylic acid] | * * *
CN1CCN(Cc2nc(-c3cncc(Cl)c3)n(Cc3cc(Cl)ccc3Cl)c2C(=O)O)CC1 [Compound A197, 2-(5-chloropyridin-3-yl)-1-(2,5-dichlorobenzyl)-4-((4-methylpiperazine-1-yl)methyl)-1H-imidazole-5-carboxylic acid] | * * *
O=C(O)c1c(Cn2ccnc2)nc(-c2cncc(Cl)c2)n1Cc1cc(Cl)ccc1Cl [Compound A199, 4-((1H-imidazol-1-yl)methyl)-2-(5-chloropyridin-3-yl)-1-(2,5-dichlorobenzyl)-1H-imidazole-5-carboxylic acid] | * *
O=C(O)c1c(Cn2cccn2)nc(-c2cncc(Cl)c2)n1Cc1cc(Cl)ccc1Cl [Compound A200, 4-((1H-pyrazol-1-yl)methyl)-2-(5-chloropyridin-3-yl)-1-(2,5-dichlorobenzyl)-1H-imidazole-5-carboxylic acid] | * * *
CCCN1CCN(Cc2nc(-c3cncc(Cl)c3)n(Cc3cc(Cl)ccc3Cl)c2C(=O)O)CC1 [Compound A202, 2-(5-chloropyridin-3-yl)-1-(2,5-dichlorobenzyl)-4-((4-propylpiperazin-1-yl)methyl)-1H-imidazole-5-carboxylic acid] | * * *
CS(=O)(=O)N1CCN(Cc2nc(-c3cncc(Cl)c3)n(Cc3cc(Cl)ccc3Cl)c2C(=O)O)CC1 [Compound A203, 2-(5-chloropyridin-3-yl)-1-(2,5-dichlorobenzyl)-4-((4-(methylsulfonyl)piperazin-1-yl)methyl)-1H-imidazole-5-carboxylic acid] | * *

Same assay, conditions: HEK 293 cells expressing human URAT1; 14C-labeled uric acid 25 μM; uptake 37° C. for 5 min; read-out: Inhibitory Activity (IC50 of uric acid transport inhibition)

IC50 | Compound
2 to 20 µM | O=C(O)c1c(CN2CCC(O)CC2)nc(-c2cncc(Cl)c2)n1Cc1cc(Cl)ccc1Cl [Compound A198]
2 to 20 µM | NCc1nc(-c2cncc(Cl)c2)n(Cc2cc(Cl)ccc2Cl)c1C(=O)O [Compound A201]
